# Measured values: patent US9932325B2 (Denali Therapeutics Inc., priority 2015, dated 2018)
# Where “and” joins values, the source holds several entries; their conditions need not be identical. Equal entries are not always repeated.
# Target: LRRK2 G2019S enzyme (Homo sapiens (Human), UniProt Q5S007, G2019S)
# Assay: LRRK2 G2019S TR-FRET biochemical assay (LRRKtide substrate)
# Conditions: 134 μM ATP
# Protocol: Detection Reaction Conditions • 1× TR-FRET dilution buffer • 10 mM EDTA • 2 nM antibody • 23° C. reaction temperature • 10 μL total reaction volume
# Compounds were prepared by initially diluting to 1 mM with DMSO. 35 μL of reference compound solution, 35 μL of test compound solution, and 35 μL HPE were successively added to the source plate (384-well assay plate, Labcyte). The plates were centrifuged at 2500 rpm for 1 minute and sealed in foil. […] The assay plate was centrifuged at 2500 rpm for 1 minute, and sealed with foil.
# To perform the enzyme reaction, 5 μL of LRRKtide substrate and kinase mixture in assay buffer was added to all wells of the assay plate. The plate was centrifuged to concentrate the mixture at the bottom of the wells. The assay plate was incubated at 23° C. for 20 minutes. Following incubation, 5 μL of 2× ATP in assay buffer was added to each well, and plates were centrifuged to concentrate the mixture at the bottom of the wells. The plate was incubated at 23° C. for 60 minutes.
# To perform the detection of the reaction, EDTA completely mixed in TR-FRET dilution buffer was added to antibody reagent. 10 μL of detection reagent was added to all wells of each well of the assay plate and the plate was centrifuged to concentrate the mixture at the bottom of the wells. The plate was then incubated at 23° C. for 60 minutes.
# LRRK2 G2019S enzyme, sequence (Q5S007 whole entry G2019S): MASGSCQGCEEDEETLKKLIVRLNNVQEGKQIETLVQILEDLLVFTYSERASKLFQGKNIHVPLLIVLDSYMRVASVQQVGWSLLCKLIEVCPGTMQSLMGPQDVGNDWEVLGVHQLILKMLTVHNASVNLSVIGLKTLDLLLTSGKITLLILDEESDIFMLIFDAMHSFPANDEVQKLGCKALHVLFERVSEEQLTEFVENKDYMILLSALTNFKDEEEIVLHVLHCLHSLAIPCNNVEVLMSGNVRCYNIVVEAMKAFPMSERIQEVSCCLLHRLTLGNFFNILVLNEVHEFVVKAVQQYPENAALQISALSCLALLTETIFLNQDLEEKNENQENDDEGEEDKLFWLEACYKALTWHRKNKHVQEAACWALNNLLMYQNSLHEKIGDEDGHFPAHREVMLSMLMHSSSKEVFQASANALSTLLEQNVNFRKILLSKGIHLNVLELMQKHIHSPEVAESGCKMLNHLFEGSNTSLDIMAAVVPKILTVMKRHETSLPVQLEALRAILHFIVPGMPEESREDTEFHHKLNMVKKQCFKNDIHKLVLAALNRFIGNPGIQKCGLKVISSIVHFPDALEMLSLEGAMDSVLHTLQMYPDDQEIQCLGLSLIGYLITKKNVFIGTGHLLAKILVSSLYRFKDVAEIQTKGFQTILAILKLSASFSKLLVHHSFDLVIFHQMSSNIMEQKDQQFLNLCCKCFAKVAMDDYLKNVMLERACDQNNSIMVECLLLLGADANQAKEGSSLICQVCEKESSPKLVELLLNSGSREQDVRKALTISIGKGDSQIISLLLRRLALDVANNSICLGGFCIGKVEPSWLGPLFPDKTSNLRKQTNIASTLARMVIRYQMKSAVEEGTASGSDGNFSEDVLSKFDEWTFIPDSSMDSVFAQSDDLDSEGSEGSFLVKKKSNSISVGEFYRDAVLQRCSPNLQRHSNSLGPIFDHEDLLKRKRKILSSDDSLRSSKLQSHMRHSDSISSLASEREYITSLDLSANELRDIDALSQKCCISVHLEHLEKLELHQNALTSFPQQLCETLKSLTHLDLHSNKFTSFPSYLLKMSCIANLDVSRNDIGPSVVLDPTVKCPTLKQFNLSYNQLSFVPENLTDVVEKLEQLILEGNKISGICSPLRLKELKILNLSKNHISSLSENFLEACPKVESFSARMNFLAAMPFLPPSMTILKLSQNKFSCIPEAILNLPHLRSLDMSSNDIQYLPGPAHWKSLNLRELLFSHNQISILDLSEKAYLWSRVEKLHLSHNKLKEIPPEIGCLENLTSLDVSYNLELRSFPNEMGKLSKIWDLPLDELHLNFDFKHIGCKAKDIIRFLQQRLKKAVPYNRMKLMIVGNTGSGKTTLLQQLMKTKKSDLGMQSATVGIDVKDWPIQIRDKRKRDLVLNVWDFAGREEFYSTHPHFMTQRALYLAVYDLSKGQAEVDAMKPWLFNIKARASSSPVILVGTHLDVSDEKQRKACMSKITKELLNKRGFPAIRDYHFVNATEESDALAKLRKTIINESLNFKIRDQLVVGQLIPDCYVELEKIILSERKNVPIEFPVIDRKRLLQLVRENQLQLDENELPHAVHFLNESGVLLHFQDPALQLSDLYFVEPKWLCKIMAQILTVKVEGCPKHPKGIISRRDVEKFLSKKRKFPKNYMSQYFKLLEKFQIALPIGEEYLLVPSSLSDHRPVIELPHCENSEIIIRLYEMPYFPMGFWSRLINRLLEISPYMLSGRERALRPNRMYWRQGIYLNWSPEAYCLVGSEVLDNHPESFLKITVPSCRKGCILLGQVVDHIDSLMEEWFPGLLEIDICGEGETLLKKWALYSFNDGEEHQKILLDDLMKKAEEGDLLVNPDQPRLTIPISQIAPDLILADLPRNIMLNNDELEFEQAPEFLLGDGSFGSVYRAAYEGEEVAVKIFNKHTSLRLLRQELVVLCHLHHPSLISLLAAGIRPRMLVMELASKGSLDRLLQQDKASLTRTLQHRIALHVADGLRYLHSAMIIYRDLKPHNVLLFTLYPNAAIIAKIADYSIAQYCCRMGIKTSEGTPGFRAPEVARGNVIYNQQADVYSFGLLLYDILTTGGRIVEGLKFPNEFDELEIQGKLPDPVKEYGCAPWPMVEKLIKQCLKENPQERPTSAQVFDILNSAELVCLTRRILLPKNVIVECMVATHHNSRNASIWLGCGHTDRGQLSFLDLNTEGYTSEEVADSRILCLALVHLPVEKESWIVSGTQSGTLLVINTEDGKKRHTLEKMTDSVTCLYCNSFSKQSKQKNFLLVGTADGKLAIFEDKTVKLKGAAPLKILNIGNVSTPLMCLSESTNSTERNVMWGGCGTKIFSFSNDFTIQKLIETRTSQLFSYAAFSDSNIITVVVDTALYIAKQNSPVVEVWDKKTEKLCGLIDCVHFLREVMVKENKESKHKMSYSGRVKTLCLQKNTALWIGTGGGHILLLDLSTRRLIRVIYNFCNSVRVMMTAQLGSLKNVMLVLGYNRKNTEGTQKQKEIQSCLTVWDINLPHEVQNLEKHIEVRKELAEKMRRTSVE
row,Structure (SMILES),IC50
1,Cc1c(Nc2ncc(C(F)(F)F)c(NC3CC3)n2)cnn1[C@H]1C[C@H](C#N)C1 [Compound 21],< 30 nM
2,[2H]C([2H])([2H])N1CCC(n2cc(Nc3ncc(C(F)(F)F)c(NCC)n3)c(C)n2)(C([2H])([2H])[2H])C1=O (stereo not shown) [Compound 22],< 30 nM
3,[2H]C([2H])([2H])N1CCC(n2cc(Nc3ncc(C(F)(F)F)c(NCC)n3)c(C)n2)C1=O (stereo not shown) [Compound 25],< 30 nM
4,CCNc1nc(Nc2cnn([C@H]3C[C@@H](C#N)C3)c2C)ncc1C(F)(F)F [Compound 27],< 30 nM and 3.41 nM
5,CCNc1nc(Nc2cnn(C3CCC3)c2C#N)ncc1C(F)(F)F [Compound 32],< 30 nM
6,[2H]C([2H])([2H])n1cnc(C(C)(C)n2cc(Nc3ncc(Br)c(OC)n3)c(C)n2)n1 [Compound 33],< 30 nM
7,CCNc1nc(Nc2cn([C@H]3C[C@H](C#N)C3)nc2C)ncc1C(F)(F)F [Compound 35A],< 30 nM
8,CCNc1nc(Nc2cn([C@H]3C[C@@H](C#N)C3)nc2C)ncc1C(F)(F)F [Compound 35B],< 30 nM
9,COc1nc(Nc2cnn(C3CCC3)c2C#N)ncc1Br [Compound 37],< 30 nM
10,Cc1nn(C(C)(C)C#N)cc1Nc1ncc(C(F)(F)F)c(NC2CC2)n1 [Compound 38],< 30 nM
11,Cc1nn(C(C)(C)C#N)cc1Nc1ncc(C(F)(F)F)c(N[C@H]2C[C@H]2F)n1 [Compound 39A],< 30 nM
12,[2H]C([2H])([2H])Nc1nc(Nc2cn(C(C#N)(C([2H])([2H])[2H])C([2H])([2H])[2H])nc2C([2H])([2H])[2H])ncc1C(F)(F)F [Compound 40],< 30 nM
13,CNc1nc(Nc2cn(C(C)(C)C#N)nc2C)ncc1Br [Compound 42],< 30 nM
14,CCNc1nc(Nc2cn(C(C)(C)C#N)nc2C)ncc1Br [Compound 43],< 30 nM
15,[2H]C([2H])([2H])c1nn(C(C#N)(C([2H])([2H])[2H])C([2H])([2H])[2H])cc1Nc1ncc(C(F)(F)F)c(NCC)n1 [Compound 44],< 30 nM
16,[2H]C([2H])([2H])c1nn(C(C#N)(C([2H])([2H])[2H])C([2H])([2H])[2H])cc1Nc1ncc(C(F)(F)F)c(NC)n1 [Compound 45],< 30 nM
17,[2H]C([2H])([2H])c1nn(C(C#N)(C([2H])([2H])[2H])C([2H])([2H])[2H])cc1Nc1ncc(C(F)(F)F)c(NCC(F)F)n1 [Compound 46],< 30 nM
18,[2H]C([2H])([2H])c1nn(C(C#N)(C([2H])([2H])[2H])C([2H])([2H])[2H])cc1Nc1ncc(C(F)(F)F)c(NC2CC2)n1 [Compound 48],< 30 nM

row,Structure (SMILES),IC50
1,CCNc1nc(Nc2cnn3c2CC(F)C3)ncc1C(F)(F)F (stereo not shown) [Compound 50],< 30 nM
2,CCNc1nc(Nc2cc(C(C)(C)n3nccn3)nn2C)ncc1C(F)(F)F [Compound 57],< 30 nM
3,CCNc1nc(Nc2cnn(C3CCC3)c2C#N)ncc1Br [Compound 58],< 30 nM
4,Cc1nn(C(C)(C)C#N)cc1Nc1ncc(C(F)(F)F)c(NCC(F)F)n1 [Compound 59],< 30 nM
5,Cc1nn(C(C)(C)C#N)cc1Nc1ncc(Cl)c(OC2CC2)n1 [Compound 60],< 30 nM
6,CCNc1nc(Nc2cnn3c2CC(n2ccnn2)C3)ncc1C(F)(F)F (stereo not shown) [Compound 61],< 30 nM
7,[2H]C([2H])([2H])c1nn(C(C)(C)C#N)cc1Nc1ncc(C(F)(F)F)c(NC)n1 [Compound 62],< 30 nM
8,[2H]C([2H])([2H])Nc1nc(Nc2cn(C(C)(C)C#N)nc2C([2H])([2H])[2H])ncc1C(F)(F)F [Compound 63],< 30 nM
9,COc1nc(Nc2cnn(C3(C)CCNC3=O)c2C)ncc1Br (stereo not shown) [Compound 65],< 30 nM
10,Cc1nn(C(C)(C)C#N)cc1Nc1ncc(Br)c(NC2CC2)n1 [Compound 66],< 30 nM
11,[2H]C([2H])([2H])Nc1nc(Nc2cn(C(C)(C)C#N)nc2C)ncc1C(F)(F)F [Compound 67],< 30 nM
12,Cn1nc(C(C)(C)n2nccn2)cc1Nc1ncc(C(F)(F)F)c(NC2CC2)n1 [Compound 69],< 30 nM
13,[2H]C([2H])([2H])n1nc(C(C)(C)n2cccn2)cc1Nc1ncc(C(F)(F)F)c(NCC)n1 [Compound 70],< 30 nM
14,[2H]C([2H])([2H])n1nc(C(C)(C)n2cccn2)cc1Nc1ncc(C(F)(F)F)c(NC2CC2)n1 [Compound 71],< 30 nM
15,Cc1nn(C(C)(C)C#N)cc1Nc1ncc(Cl)c(NC2CC2)n1 [Compound 72],< 30 nM
16,Cc1nn(C(C)(C)C#N)cc1Nc1ncc(Br)c(NCC(F)F)n1 [Compound 73],< 30 nM
17,[2H]C([2H])([2H])C(C#N)(n1cc(Nc2ncc(C(F)(F)F)c(NC)n2)c(C)n1)C([2H])([2H])[2H] [Compound 80],< 30 nM

# Results, then the compound that gave them:
row,IC50,Structure (SMILES)
1,< 30 nM,[2H]C([2H])([2H])c1nn(C(C#N)(C([2H])([2H])[2H])C([2H])([2H])[2H])cc1Nc1ncc(C(F)(F)F)c(NC([2H])([2H])C([2H])([2H])[2H])n1 [Compound 74]
2,< 30 nM,[2H]C([2H])([2H])n1nc(C(C)(C)n2nccn2)cc1Nc1ncc(Br)c(NCC)n1 [Compound 75]
3,< 30 nM,Cc1nn(C(C)(C)C#N)cc1Nc1ncc(C(F)(F)F)c(NC(CF)CF)n1 [Compound 76]
4,< 30 nM,CNc1nc(Nc2cc(C(C)(C)n3nccn3)nn2C2CC2)ncc1C(F)(F)F [Compound 77]
5,< 30 nM,[2H]C([2H])([2H])n1nc(C(C)(C)n2nccn2)cc1Nc1ncc(Br)c(NC2CC2)n1 [Compound 79]
6,< 30 nM,[2H]C([2H])([2H])n1nc(C(C)(C)n2nccn2)cc1Nc1ncc(Br)c(OC2CC2)n1 [Compound 81]
7,< 30 nM,[2H]C([2H])([2H])n1nc(C(C)(C)c2ncco2)cc1Nc1ncc(C(F)(F)F)c(NCC)n1 [Compound 82]
8,< 30 nM,[2H]C([2H])([2H])n1nc(Nc2ncc(C(F)(F)F)c(NCC)n2)cc1C(C)(C)c1ncco1 [Compound 83]
9,< 30 nM,Cc1nn(C(C)(C)C#N)cc1Nc1ncc(C(F)(F)F)c(NC2(C)CC2)n1 [Compound 84]
10,< 30 nM,CCNc1nc(Nc2cn(C(C)(C)c3nncs3)nc2C)ncc1C(F)(F)F [Compound 85]
11,< 30 nM,CCNc1nc(Nc2cc(C(C)(C)n3nccn3)nn2C(C)C)ncc1C(F)(F)F [Compound 86]
12,< 30 nM,CCNc1nc(Nc2cn(C(C)(C)C#N)nc2C)ncc1C(F)(F)F [Compound 87]
13,< 30 nM,[2H]C([2H])([2H])C([2H])([2H])n1nc(C(C)(C)n2nccn2)cc1Nc1ncc(C(F)(F)F)c(NCC)n1 [Compound 88]
14,< 30 nM,[2H]C([2H])([2H])C([2H])([2H])Nc1nc(Nc2cn(C(C)(C)C#N)nc2C)ncc1C(F)(F)F [Compound 89]
15,< 30 nM,CCNc1nc(Nc2cn(Cc3ccon3)nc2C2CC2)ncc1C(F)(F)F [Compound 94]
16,< 30 nM,COc1nc(Nc2cn(Cc3cc[nH]n3)nc2C2CC2)ncc1Br [Compound 95]
17,< 30 nM,CCNc1nc(Nc2cn(C3CS(=O)(=O)C3)nc2C2CC2)ncc1Br [Compound 96]
18,< 30 nM,CCNc1nc(Nc2cnn([C@H]3C[C@H](n4nccn4)C3)c2C2CC2)ncc1C(F)(F)F [Compound 97]

row,IC50,Structure (SMILES)
1,< 30 nM,CCNc1nc(Nc2cnn(-c3cnccn3)c2Cl)ncc1C(F)(F)F [Compound 98]
2,< 30 nM,CCNc1nc(Nc2cnn([C@H]3C[C@@H](n4nccn4)C3)c2C2CC2)ncc1C(F)(F)F [Compound 101]
3,< 30 nM,"CCNc1nc(Nc2cnn(-c3cnccn3)c2C2CC2)ncc1C(F)(F)F [Compound 105, N2-(5-cyclopropyl-1-pyrazin-2-yl-pyrazol-4-yl)-N4-ethyl-5-(trifluoromethyl)pyrimidine-2,4-diamine]"
4,< 30 nM,CCNc1nc(Nc2cnn([C@H]3C[C@@H](N4CCN(CC(F)F)CC4)C3)c2C)ncc1C(F)(F)F [Compound 106]
5,< 30 nM,CCNc1nc(Nc2cn(C3C[C@@H]3C#N)nc2C2CC2)ncc1C(F)(F)F (stereo partly shown) [Compound 107]
6,< 30 nM,CCNc1nc(Nc2cn(C3(C)CCOC3=O)nc2C2CC2)ncc1C(F)(F)F (stereo not shown) [Compound 108]
7,< 30 nM,CNc1nc(Nc2c[nH]nc2C)ncc1C(F)(F)F [Compound 109]
8,< 30 nM,"CCNc1nc(Nc2cn(C3CS(=O)(=O)C3)nc2C2CC2)ncc1C(F)(F)F [Compound 110, N2-[3-cyclopropyl-1-(1,1-dioxothietan-3-yl)pyrazol-4-yl]-N4-ethyl-5-(trifluoromethyl)pyrimidine-2,4-diamine]"
9,< 30 nM,CCNc1nc(Nc2cn(S(C)(=O)=O)nc2C2CC2)ncc1Br [Compound 111]
10,< 30 nM,CCNc1nc(Nc2cn(S(C)(=O)=O)nc2C2CC2)ncc1C(F)(F)F [Compound 112]
11,< 30 nM,CCNc1nc(Nc2cnn(C3CC(N4CCN(CC(F)F)CC4)C3)c2C)ncc1C(F)(F)F (stereo not shown) [Compound 121]
12,< 30 nM,CCNc1nc(Nc2cc(C(C)(C)n3nccn3)nn2C2CC2)ncc1Br [Compound 126]
13,< 30 nM,CCNc1nc(Nc2cc(C(C)(C)n3nccn3)nn2C2CCC2)ncc1C(F)(F)F [Compound 127]
14,< 30 nM,CNc1nc(Nc2cc(C(C)(C)c3ncccn3)nn2C2CC2)ncc1C(F)(F)F [Compound 128]
15,< 30 nM,CCNc1nc(Nc2cc(C(C)(C)n3nccn3)nn2CC)ncc1C(F)(F)F [Compound 129]
16,< 30 nM,CCNc1nc(Nc2cc(C(=O)N(C)C)nn2C2CC2)ncc1C(F)(F)F [Compound 130]
17,< 30 nM,CCNc1nc(Nc2cc(S(C)(=O)=O)nn2C2CC2)ncc1C(F)(F)F [Compound 132]
